# Source: the supplement of paper PMC10307832
# Key:
# Test in all cases: relative viability (nuclei count vs DMSO), 5 days (fraction); higher = more cells survive
# ChaGo-K-1 = test system: ChaGo-K-1
# Method in brief: (§1)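 After 5 days of treatment, lung cancer cells in 1536-well plates were fixed and stained in a single step (final 0.05% Triton X-100, 1% formaldehyde, 1 ug/ml Hoechst) and their nuclei counted on 4× images. Treatment had been applied by pin tool the day after seeding as one drug alone or as a fixed anchor-drug dose with five library-drug doses (not always all listed) in √10 steps. Relative viability is the nuclei count of treated wells divided by that of vehicle wells, and values are medians of duplicate plates.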
# EMC-BAC-2 = test system: EMC-BAC-2
# Method in brief: as §1
# EPLC-272H = test system: EPLC-272H
# Method in brief: as §1
# HCC-827 = test system: HCC-827
# Method in brief: as §1
# LCLC-103H = test system: LCLC-103H
# Method in brief: as §1
# LK-2 = test system: LK-2
# Method in brief: as §1
# LOU-NH91 = test system: LOU-NH91
# Method in brief: as §1
# LU99A = test system: LU99A
# Method in brief: as §1
# LXF-289 = test system: LXF-289
# Method in brief: as §1
# NCI-H1563 = test system: NCI-H1563
# Method in brief: as §1
# NCI-H1666 = test system: NCI-H1666
# Method in brief: as §1
# NCI-H1975 = test system: NCI-H1975
# Method in brief: as §1
# NCI-H2085 = test system: NCI-H2085
# Method in brief: as §1
# NCI-H2126 = test system: NCI-H2126
# Method in brief: as §1
# NCI-H23 = test system: NCI-H23
# Method in brief: as §1
# NCI-H2405 = test system: NCI-H2405
# Method in brief: as §1
# NCI-H3122 = test system: NCI-H3122
# Method in brief: as §1
# NCI-H322M = test system: NCI-H322M
# Method in brief: as §1
# RERF-LC-KJ = test system: RERF-LC-KJ
# Method in brief: as §1
# SK-LU-1 = test system: SK-LU-1
# Method in brief: as §1
# SW 1573 = test system: SW 1573
# Method in brief: as §1
# SW 900 = test system: SW 900
# Method in brief: as §1
smiles,measurement,setting,value
O=C(O)c1ccc(-c2c[nH]c3ncc(-c4ccccc4)cc23)cc1C1CCCC1 + CCNC(=O)c1noc(-c2cc(C(C)C)c(O)cc2O)c1-c1ccc(CN2CCOCC2)cc1 [Luminespib] (partner 0.01 µM),relative viability,ChaGo-K-1; first compound 0.04 µM,0.712
same,relative viability,ChaGo-K-1; first compound 0.1265 µM,0.651
same,relative viability,ChaGo-K-1; first compound 0.4 µM,0.56
same,relative viability,ChaGo-K-1; first compound 1.265 µM,0.536
same,relative viability,EMC-BAC-2; first compound 0.04 µM,1.19
same,relative viability,EMC-BAC-2; first compound 0.1265 µM,1.16
same,relative viability,EMC-BAC-2; first compound 0.4 µM,1.13
same,relative viability,EMC-BAC-2; first compound 1.265 µM,0.975
same,relative viability,EPLC-272H; first compound 0.04 µM,0.628
same,relative viability,EPLC-272H; first compound 0.1265 µM,0.367
same,relative viability,EPLC-272H; first compound 0.4 µM,0.21
same,relative viability,EPLC-272H; first compound 1.265 µM,0.0951
same,relative viability,HCC-827; first compound 0.04 µM,0.602
same,relative viability,HCC-827; first compound 0.1265 µM,0.793
same,relative viability,HCC-827; first compound 0.4 µM,0.413
same,relative viability,HCC-827; first compound 1.265 µM,0.485
same,relative viability,LCLC-103H; first compound 0.04 µM,1.08
same,relative viability,LCLC-103H; first compound 0.1265 µM,1.05
same,relative viability,LCLC-103H; first compound 0.4 µM,0.84
same,relative viability,LCLC-103H; first compound 1.265 µM,0.713
same,relative viability,LK-2; first compound 0.04 µM,0.157
same,relative viability,LK-2; first compound 0.1265 µM,0.187
same,relative viability,LK-2; first compound 0.4 µM,0.161
same,relative viability,LK-2; first compound 1.265 µM,0.168
same,relative viability,LOU-NH91; first compound 0.04 µM,0.323
same,relative viability,LOU-NH91; first compound 0.1265 µM,0.33
same,relative viability,LOU-NH91; first compound 0.4 µM,0.278
same,relative viability,LOU-NH91; first compound 1.265 µM,0.472
same,relative viability,LU99A; first compound 0.04 µM,0.259
same,relative viability,LU99A; first compound 0.1265 µM,0.254
same,relative viability,LU99A; first compound 0.4 µM,0.244
same,relative viability,LU99A; first compound 1.265 µM,0.273
same,relative viability,LXF-289; first compound 0.04 µM,0.749
same,relative viability,LXF-289; first compound 0.1265 µM,0.614
same,relative viability,LXF-289; first compound 0.4 µM,0.484
same,relative viability,LXF-289; first compound 1.265 µM,0.171
same,relative viability,NCI-H1563; first compound 0.04 µM,0.489
same,relative viability,NCI-H1563; first compound 0.1265 µM,0.599
same,relative viability,NCI-H1563; first compound 0.4 µM,0.42
same,relative viability,NCI-H1563; first compound 1.265 µM,0.508
same,relative viability,NCI-H1666; first compound 0.04 µM,0.976
same,relative viability,NCI-H1666; first compound 0.1265 µM,0.97
same,relative viability,NCI-H1666; first compound 0.4 µM,0.959
same,relative viability,NCI-H1666; first compound 1.265 µM,0.579
same,relative viability,NCI-H1975; first compound 0.04 µM,0.131
same,relative viability,NCI-H1975; first compound 0.1265 µM,0.302
same,relative viability,NCI-H1975; first compound 0.4 µM,0.199
same,relative viability,NCI-H1975; first compound 1.265 µM,0.338
same,relative viability,NCI-H2085; first compound 0.04 µM,0.441
same,relative viability,NCI-H2085; first compound 0.1265 µM,0.422
same,relative viability,NCI-H2085; first compound 0.4 µM,0.488
same,relative viability,NCI-H2085; first compound 1.265 µM,0.31
same,relative viability,NCI-H2126; first compound 0.04 µM,0.937
same,relative viability,NCI-H2126; first compound 0.1265 µM,0.955
same,relative viability,NCI-H2126; first compound 0.4 µM,0.796
same,relative viability,NCI-H2126; first compound 1.265 µM,0.619
same,relative viability,NCI-H23; first compound 0.04 µM,0.224
same,relative viability,NCI-H23; first compound 0.1265 µM,0.217
same,relative viability,NCI-H23; first compound 0.4 µM,0.217
same,relative viability,NCI-H23; first compound 1.265 µM,0.2
same,relative viability,NCI-H2405; first compound 0.04 µM,0.778
same,relative viability,NCI-H2405; first compound 0.1265 µM,0.831
same,relative viability,NCI-H2405; first compound 0.4 µM,0.579
same,relative viability,NCI-H2405; first compound 1.265 µM,0.535
same,relative viability,NCI-H3122; first compound 0.04 µM,0.0905
same,relative viability,NCI-H3122; first compound 0.1265 µM,0.0913
same,relative viability,NCI-H3122; first compound 0.4 µM,0.0809
same,relative viability,NCI-H3122; first compound 1.265 µM,0.0888
same,relative viability,NCI-H322M; first compound 0.04 µM,0.901
same,relative viability,NCI-H322M; first compound 0.1265 µM,0.934
same,relative viability,NCI-H322M; first compound 0.4 µM,0.846
same,relative viability,NCI-H322M; first compound 1.265 µM,0.664
same,relative viability,RERF-LC-KJ; first compound 0.04 µM,1.32
same,relative viability,RERF-LC-KJ; first compound 0.1265 µM,1.19
same,relative viability,RERF-LC-KJ; first compound 0.4 µM,1.1
same,relative viability,RERF-LC-KJ; first compound 1.265 µM,0.645
same,relative viability,SK-LU-1; first compound 0.04 µM,0.204
same,relative viability,SK-LU-1; first compound 0.1265 µM,0.196
same,relative viability,SK-LU-1; first compound 0.4 µM,0.231
same,relative viability,SK-LU-1; first compound 1.265 µM,0.179
same,relative viability,SW 1573; first compound 0.04 µM,0.563
same,relative viability,SW 1573; first compound 0.1265 µM,0.486
same,relative viability,SW 1573; first compound 0.4 µM,0.292
same,relative viability,SW 1573; first compound 1.265 µM,0.383
same,relative viability,SW 900; first compound 0.04 µM,0.185
same,relative viability,SW 900; first compound 0.1265 µM,0.171
same,relative viability,SW 900; first compound 0.4 µM,0.175
same,relative viability,SW 900; first compound 1.265 µM,0.156
